Data: patent US20240343704A1, “HALO-SUBSTITUTED AMINO PYRIDINE COMPOUNDS AS INHIBITORS OF THE HAEMATOPOIETIC PROGENITOR KINASE 1 (HPK1)” (priority 2021, published 2024)

What was measured:
[1] = molecular target: T1, Recombinant (1-346) HPK1 (h) (Homo sapiens, UniProt Q92918); test: HPK1 Human STE Kinase Enzymatic Radiometric Assay; format: biochemical; conditions: read-out: HPK1 IC50 nM Range*
T1 construct: Recombinant (1-346) HPK1 (h) is incubated with 8 mM MOPS pH 7.0
T1 sequence (Q92918 1-346): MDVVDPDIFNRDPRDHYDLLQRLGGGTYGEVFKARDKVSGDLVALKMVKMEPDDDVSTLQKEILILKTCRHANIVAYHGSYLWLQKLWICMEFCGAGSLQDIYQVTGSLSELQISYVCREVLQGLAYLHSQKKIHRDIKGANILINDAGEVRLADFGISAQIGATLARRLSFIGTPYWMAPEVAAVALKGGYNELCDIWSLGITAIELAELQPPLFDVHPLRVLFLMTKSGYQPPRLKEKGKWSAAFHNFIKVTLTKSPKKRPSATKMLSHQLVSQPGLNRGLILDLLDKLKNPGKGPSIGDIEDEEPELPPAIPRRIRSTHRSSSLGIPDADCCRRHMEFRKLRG
Method: A stock solution of 10 mM of test compound is prepared in DMSO. The compound plate was prepared by 3-fold and 9-point serial dilutions. […] The reaction is initiated by The addition of the Mg/ATP mix. After incubation for 40 minutes at RT, the reaction is stopped by the addition of phosphoric acid to a concentration of 0.5%.

[2] = molecular target: Lck (h) (Homo sapiens, UniProt P06239); test: Lck Human  Kinase Enzymatic Radiometric Assay; format: biochemical; conditions: read-out: Lck IC50 nM Range*
Sequence of Lck (h) (P06239 whole entry): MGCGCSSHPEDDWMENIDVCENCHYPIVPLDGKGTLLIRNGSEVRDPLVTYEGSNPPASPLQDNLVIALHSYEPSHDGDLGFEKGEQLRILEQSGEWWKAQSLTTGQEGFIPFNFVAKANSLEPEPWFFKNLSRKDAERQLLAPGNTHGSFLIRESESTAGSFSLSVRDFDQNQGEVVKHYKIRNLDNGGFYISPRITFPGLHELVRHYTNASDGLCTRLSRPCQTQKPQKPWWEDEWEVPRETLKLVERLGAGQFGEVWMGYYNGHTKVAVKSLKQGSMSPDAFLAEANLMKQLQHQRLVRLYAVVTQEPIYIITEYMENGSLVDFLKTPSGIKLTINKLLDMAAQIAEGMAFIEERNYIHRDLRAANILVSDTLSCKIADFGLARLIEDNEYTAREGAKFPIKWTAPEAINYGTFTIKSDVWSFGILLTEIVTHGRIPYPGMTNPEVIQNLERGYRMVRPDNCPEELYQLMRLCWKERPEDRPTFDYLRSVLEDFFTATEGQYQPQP
In short: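 Substrate 33P-incorporation measured by scintillation counting after spotting on P30 filtermat and phosphoric acid washes. Human Lck reacted 40 min at RT in 50 mM Tris pH 7.5 with 10 mM MgAcetate, [gamma-33P]-ATP, 250 uM Cdc2 peptide, 0.1 mM EGTA and 0.1 mM Na3VO4.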

| SMILES | IC50 [1] [nM] | IC50 [2] [nM] |
| --- | --- | --- |
| CN1CCN(S(=O)(=O)c2ccc(-c3cc(-c4ccc5c(c4)CCNC5=O)c(N)nc3F)cc2)CC1 [I-207, 6-(2-amino-6-fluoro-5-(4-((4-methylpiperazin-1-yl)sulfonyl)phenyl)pyridin-3-yl)-3,4-dihydroisoquinolin-1(2H)-one] | 0.1 to 10 | > 1000 |
| COCCN1CCC(OC)(c2ccc(-c3cc(-c4ccc5c(c4)CCNC5=O)c(N)nc3F)cc2)CC1 [I-208, 6-(2-amino-6-fluoro-5-(4-(4-methoxy-1-(2-methoxyethyl)piperidin-4-yl)phenyl)pyridin-3-yl)-3,4-dihydroisoquinolin-1(2H)-one] | 0.1 to 10 | > 1000 |
| CC(C)N1CCN(c2ccc(-c3cc(-c4cc5c(cc4F)C(=O)NCC5)c(N)nc3Cl)cc2)CC1 [I-209, 6-(2-amino-6-chloro-5-(4-(4-isopropylpiperazin-1-yl)phenyl)pyridin-3-yl)-7-fluoro-3,4-dihydroisoquinolin-1(2H)-one] | 0.1 to 10 | > 1000 |
| Nc1nc(F)c(-c2ccc(N3CCN(CC4CC4)CC3)cc2)cc1-c1ccc2c(c1)CCNC2=O [I-210, 6-(2-amino-5-(4-(4-(cyclopropylmethyl)piperazin-1-yl)phenyl)-6-fluoropyridin-3-yl)-3,4-dihydroisoquinolin-1(2H)-one] | 0.1 to 10 | 101 to 1000 |
| CCN1CCN(c2ccc(-c3cc(-c4cc5c(cc4F)C(=O)NCC5)c(N)nc3F)cc2)CC1 [I-211, 6-(2-amino-5-(4-(4-ethylpiperazin-1-yl)phenyl)-6-fluoropyridin-3-yl)-7-fluoro-3,4-dihydroisoquinolin-1(2H)-one] | 0.1 to 10 | > 1000 |
| COCCN1CCN(c2ccc(-c3cc(-c4cc5c(cc4F)C(=O)NCC5)c(N)nc3F)cc2)CC1 [I-212, 6-(2-amino-6-fluoro-5-(4-(4-(2-methoxyethyl)piperazin-1-yl)phenyl)pyridin-3-yl)-7-fluoro-3,4-dihydroisoquinolin-1(2H)-one] | 0.1 to 10 | > 1000 |
| Nc1nc(F)c(-c2ccc(N3CCN(CC4CC4)CC3)cc2)cc1-c1cc2c(cc1F)C(=O)NCC2 [I-213, 6-(2-amino-5-(4-(4-(cyclopropylmethyl)piperazin-1-yl)phenyl)-6-fluoropyridin-3-yl)-7-fluoro-3,4-dihydroisoquinolin-1(2H)-one] | 0.1 to 10 | > 1000 |
| COCCN1CCC2(CC1)OCc1cc(-c3cc(-c4ccc5c(c4)CCNC5=O)c(N)nc3F)ccc1O2 [I-214, 6-(2-amino-6-fluoro-5-(1′-(2-methoxyethyl)-4H-spiro[benzo[d][1,3]dioxine-2,4′-piperidin]-6-yl)pyridin-3-yl)-3,4-dihydroisoquinolin-1(2H)-one] | 0.1 to 10 | > 1000 |
| COCCN1CCC2(CC1)CC(=O)c1cc(-c3cc(-c4ccc5c(c4)CCNC5=O)c(N)nc3F)ccc1O2 [I-215, 6-(6-amino-2-fluoro-5-(1-oxo-1,2,3,4-tetrahydroisoquinolin-6-yl)pyridin-3-yl)-1′-(2-methoxyethyl)spiro[chromane-2,4′-piperidin]-4-one] | 0.1 to 10 | > 1000 |
| COCCN1CCC2(CCc3cc(-c4cc(-c5ccc6c(c5)CCNC6=O)c(N)nc4F)ccc3O2)CC1 [I-216, 6-(2-amino-6-fluoro-5-(1′-(2-methoxyethyl)spiro[chromane-2,4′-piperidin]-6-yl)pyridin-3-yl)-3,4-dihydroisoquinolin-1(2H)-one] | 0.1 to 10 | > 1000 |
| COCCN1CCC(Oc2ccc(-c3cc(-c4ccc5c(c4)CCNC5=O)c(N)nc3F)cc2C#N)CC1 [I-217, 5-(6-amino-2-fluoro-5-(1-oxo-1,2,3,4-tetrahydroisoquinolin-6-yl)pyridin-3-yl)-2-((1-(2-methoxyethyl)piperidin-4-yl)oxy)benzonitrile] | 0.1 to 10 | > 1000 |
| CC(C)N1CCC2(CC1)OCc1cc(-c3cc(-c4ccc5c(c4)CCNC5=O)c(N)nc3F)ccc1O2 [I-218, 6-(2-amino-6-fluoro-5-(1′-isopropyl-4H-spiro[benzo[d][1,3]dioxine-2,4′-piperidin]-6-yl)pyridin-3-yl)-3,4-dihydroisoquinolin-1(2H)-one] | 0.1 to 10 | > 1000 |
| Nc1nc(F)c(-c2ccc(N3CCNCC3)c(C(F)(F)F)c2)cc1-c1cc2c(cc1F)C(=O)NCC2 [I-219, 6-(2-amino-6-fluoro-5-(4-(piperazin-1-yl)-3-(trifluoromethyl)phenyl)pyridin-3-yl)-7-fluoro-3,4-dihydroisoquinolin-1(2H)-one] | 0.1 to 10 | > 1000 |
| COCC(=O)N1C[C@H]2C[C@@]2(c2ccc(-c3cc(-c4ccc5c(c4)CCNC5=O)c(N)nc3F)cc2)C1 [I-220, 6-(2-amino-6-fluoro-5-(4-((1R,5S)-3-(2-methoxyacetyl)-3-azabicyclo[3.1.0]hexan-1-yl)phenyl)pyridin-3-yl)-3,4-dihydroisoquinolin-1(2H)-one] | 0.1 to 10 | > 1000 |
| CC(=O)N1CCN(c2ccc(-c3cc(-c4cc5c(cc4F)C(=O)NCC5)c(N)nc3F)cn2)CC1 [I-221, 6-(6′-(4-acetylpiperazin-1-yl)-6-amino-2-fluoro-[3,3′-bipyridin]-5-yl)-7-fluoro-3,4-dihydroisoquinolin-1(2H)-one 2,2,2-trifluoroacetate] | 11 to 100 | > 1000 |
| CC(C)N1CCC2(CC1)CC(=O)c1cc(-c3cc(-c4ccc5c(c4)CCNC5=O)c(N)nc3F)ccc1O2 [I-222, 6-(6-amino-2-fluoro-5-(1-oxo-1,2,3,4-tetrahydroisoquinolin-6-yl)pyridin-3-yl)-1′-isopropylspiro[chromane-2,4′-piperidin]-4-one] | 0.1 to 10 | > 1000 |
| CC(C)N1CCC2(CCc3cc(-c4cc(-c5ccc6c(c5)CCNC6=O)c(N)nc4F)ccc3O2)CC1 [I-223, 6-(2-amino-6-fluoro-5-(1′-isopropylspiro[chromane-2,4′-piperidin]-6-yl)pyridin-3-yl)-3,4-dihydroisoquinolin-1(2H)-one] | 0.1 to 10 | > 1000 |
| CC(C)N1CCC(Oc2ccc(-c3cc(-c4ccc5c(c4)CCNC5=O)c(N)nc3F)cc2C#N)CC1 [I-224, 5-(6-amino-2-fluoro-5-(1-oxo-1,2,3,4-tetrahydroisoquinolin-6-yl)pyridin-3-yl)-2-((1-isopropylpiperidin-4-yl)oxy)benzonitrile] | 0.1 to 10 | > 1000 |
| CN(C)CC(=O)N1C[C@H]2C[C@@]2(c2ccc(-c3cc(-c4ccc5c(c4)CCNC5=O)c(N)nc3F)cc2)C1 [I-225, 6-(2-amino-5-(4-((1R,5S)-3-(dimethylglycyl)-3-azabicyclo[3.1.0]hexan-1-yl)phenyl)-6-fluoropyridin-3-yl)-3,4-dihydroisoquinolin-1(2H)-one] | 0.1 to 10 | > 1000 |
| CC(C)N1CCN(c2ccc(-c3cc(-c4cc5c(cc4F)C(=O)NCC5)c(N)nc3F)cn2)CC1 [I-226, 6-(6-amino-2-fluoro-6′-(4-isopropylpiperazin-1-yl)-[3,3′-bipyridin]-5-yl)-7-fluoro-3,4-dihydroisoquinolin-1(2H)-one] | 0.1 to 10 | > 1000 |
| Nc1cc2cc(-c3cc(-c4ccc5c(c4)CCNC5=O)c(N)nc3F)c(F)c(Cl)c2cn1 [I-227, 6-(2-amino-5-(3-amino-8-chloro-7-fluoroisoquinolin-6-yl)-6-fluoropyridin-3-yl)-3,4-dihydroisoquinolin-1(2H)-one] | 11 to 100 | > 1000 |
